The source of these data is patent publication US3933782A, “(N-Acetyl)-Pro-D-Phe-Trp-Ser-Tyr-D-Ala-Leu-Arg-Pro-NHEt and intermediates” (American Home Products Corporation, priority 1974, dated 1976).

Where a SMILES comes first, the peptide text is derived from it. [ ]: non-standard residue; d: D form. pGlu = O=C1CC[C@@H](C(=O)O)N1

Test [1] concerns ovulation in mature Sprague-Dawley rats. As to conditions: same rat ovulation test; absence of or significant decrease in number of ova is the criterion.
Description: The test was conducted with mature Sprague-Dawley rats, normally cycling, unanesthetized, proestrous rats. On the afternoon of proestrous, each rat in the test group received six subcutaneous injections of the acetate salt of formula I in corn oil, each injection being given a half hour following the previous injection. The rats are sacrificed the next morning and the number of animals ovulating and the number of ova shed are recorded following the procedure described by E. S. France, Neuroendocrinology 6, pp 77-89 (1970). The absence of or a significant decrease in the number of ova is the criterion for an anti-ovulation effect.
The test system of a further test is ovulation. The conditions noted are these: as described in Ser. No. 402,958, now U.S. Pat. No. 3,855,199; cited from earlier work.

For `CCNC(=O)[C@@H]1CCCN1C(=O)[C@H](CCCNC(=N)N)NC(=O)[C@H](CC(C)C)NC(=O)[C@@H](C)NC(=O)[C@H](Cc1ccc(O)cc1)NC(=O)[C@H](CO)NC(=O)[C@H](Cc1c[nH]c2ccccc12)NC(=O)[C@@H](Cc1ccccc1)NC(=O)[C@@H]1CCC(=O)N1` [p-Glu-D-Phe-Trp-Ser-Tyr-D-Ala-Leu-Arg-Pro-NHEt] ([pGlu][dF]WSY[dA]LRP-NHEt), the “antiovulatory activity (result in words)” value in test [1] is “devoid of antiovulatory activity”.

Take [D-Phe^2 -D-Ala^6 ]-LRF: the “anti-ovulatory activity (result in words)” value in the test on ovulation was “having anti-ovulatory activity”.
